The text below walks through data of paper PMC12828543, “Preclinical drug screen identifies WEE1 inhibitor and vinca alkaloid as a combination treatment concept for Li-Fraumeni syndrome medulloblastoma” (iScience, 2025).

Where two headings read alike, the source gives them in different places.

Series [1] has as its system TP53mut cancer cell lines SJ-GBM2 and UW228-2. The series is described as follows: Drug combination screen (synergy scores, SynergyFinder+). Type of series: cell-based, human. The settings on record: TP53mut brain cancer cell lines. As for the experimental part: Drugs were tested in combinations in vitro using TP53^mut cancer cell lines SJ-GBM2 and UW228-2. […] Cell metabolic activity was measured in the same way as in the single drug screen (3 technical replicates x min. 3 biological replicates for each condition).
(§1) In analysis of the results from PDO lines Synergy finder+ was used and growth curves were generated using R version 4.2.2 (package drc). Presented synergy scores are averages across 3 biological replicates (each with two technical replicates, from which a mean value was calculated).

The next series relates to orthotopic GBM model. The conditions noted are these: cited from earlier work.
For series [2], the system named is SJ-GBM2. The series is described as follows: Validation in established cell lines (0.1-10,000 nM, triplicates, 72 h, CellTiter-Glo 2.0). Type of series: cell-based, human. The conditions noted are these: for IC50: SJ-GBM2, metabolic activity; for Emax: validation, maximum effect, 0.1-10,000 nM, 72 h. As for the experimental part:
(§2) Following 72-hour exposure cell viability was measured using CellTiter-Glo 2.0 Assay (cat.no. G9241, Promega) and the Spark microplate reader (Tecan).
(§3) DSS3 (single drug screen and validation steps) and Emax (validation step only) were estimated based on four-parameter logistic curves.
(In general: In ATP-based viability assays light output follows the ATP content of the culture.)

The test system of series [3] is UW228-2. The series is described as above. The class given is cell-based, human. The settings on record: for IC50: UW228-2, metabolic activity; for Emax: UW228-2, validation, maximum effect, 0.1-10,000 nM, 72 h. As for the experimental part:
as §2, §3

Series [4] concerns DKFZ-BT084 PDX (LFS-associated SHH-MB), orthotopic in NSG mice. The series is described as follows: In vivo drug testing in LFS SHH-MB PDX model. Also noted: species or system mouse. The settings on record: adavosertib 60 mg/kg p.o. 5 times/week, vincristine 0.5 mg/kg i.p. once weekly, 4 weeks. As for the experimental part:
Animal experiment permits (G-193/21 and G-135/23) were issued by the Regional Council in Karlsruhe. In in vivo drug treatment and in vivo target dependence experiments female NOD.Cg-Prkdc^scidIl2rg^tm1Wjl/SzJ (NSG) mice were used. Intracranial patient-derived xenograft (PDX) tumor cell injections were performed in 6-8-week old animals. Following LFS-associated SHH-MB PDX models were injected: DKFZ-BT084[86] (relapsed tumor), LFS_primary[78] (gift from Prof. Aurélie Ernst, treatment-naive) and HS231222 (newly-established model, treatment-naive). After tumor detection mice were randomly assigned into 4 treatment groups (4-5 animals/group) without blinding.
LFS_primary[78] (gift from Aurélie Ernst) and HS231222. […] The control group received treatment with solvents only.

Series [5] concerns SJ-GBM2. As to the kind of experiment: WEE1 siRNA knockdown and vincristine, cell viability after 72 hours. Type of series: cell-based. The conditions noted are these: Homo sapiens; SJ-GBM2, 72 hours, vincristine 0.5 nM, compared to control siRNA. As for the experimental part:
(§4) SJ-GBM2 and UW228-2 cells were transfected with ON-TARGETplus Human WEE1 siRNA (SMARTPool, cat.no. L-005050-00, Dharmacon Reagents) using Lipofectamine RNAiMAX Transfection Reagent (cat. no. 13778075, Invitrogen). WEE1 knockdown at protein level was confirmed by Western blot (α-WEE1 antibody [B-11], cat.no. sc-5285, Santa Cruz Biotechnology). After 72 hours cell viability was measured as described in Single drug screening method section. Caspase assay was performed 48 hours after treatment according to manufacturer instructions (cat.no. ab39383, Abcam).
(§5) Western blot bands were quantified using ImageJ (version 1.50b, Wayne Rasband and co., NIH). The readouts from 3 biological replicates were analyzed using R version 4.2.2 (packages ggplot2, DSS, stats) and presented as mean values with standard deviations.

The test system of series [6] is UW228-2. Described as above. The class given is cell-based. The conditions noted are these: Homo sapiens; UW228-2, 72 hours, vincristine 0.5 nM, compared to control siRNA. As for the experimental part: as §4, §5
The test system of series [7] is TP53mut SHH-MB patient-derived organoids (PDOs). As to the kind of experiment: Drug treatment assay in PDOs, summary over all three PDO models. Type of series: cell-based. The settings on record: Homo sapiens. As for the experimental part: (§6) Cells were treated with DMSO as negative control and with Staurosporine (10 μM) (BIO-CONNECT BV, cat.no. 62996-74-1) as positive control. Metabolic activity was measured 72h after drug treatment by adding 40 μL of CellTiter-Glo 3D cell viability assay (Promega, cat.no. G9683) to each well, shake for 5 minutes using the Multidrop Combi system dispenser and incubated at room temperature and in the dark for an additional 25 minutes. Thereafter, bioluminescence was measured using the CLARIOstarplus (BMG Labtech) plate reader. Results were normalized to DMSO negative controls (100% viability) and Staurosporine positive controls (0% viability).
as §1

Series [8] has as its system TP53mut SHH-MB patient-derived organoid B062-008. As to the kind of experiment: Drug treatment assay in PDOs (72 h, CellTiter-Glo 3D). Type of series: cell-based, human. The settings on record: PDO B062-008, single drug; for IC50: Homo sapiens. As for the experimental part:
as §6, §1

In series [9] the test system is TP53mut SHH-MB patient-derived organoid B062-13315. The series is described as above. Type of series: cell-based, human. The conditions noted are these: PDO B062-13315, single drug; for IC50: Homo sapiens. As for the experimental part: as §6, §1
Series [10] concerns TP53mut SHH-MB patient-derived organoid MED113FH. Described as above. The conditions noted are these: PDO MED113FH, single drug; for IC50: Homo sapiens. Type of series: cell-based, human. As for the experimental part:
as §6, §1

For series [11], the system named is caspase-3 activity in SJ-GBM2 and UW228-2. As to the kind of experiment: Caspase-3 assay (fluorometric) 48 hours after treatment. Type of series: cell-based, human. The conditions noted are these: SJ-GBM2 and UW228-2, 48 hours. As for the experimental part:
as §4

For series [12] the following is noted: Cmax from literature; ref PMID: 32635465; cited from earlier work.
Series [13] relates to Trp53+/- LFS mouse model (Trp53tm1Tyj/J). The settings on record: for Survival: Trp53+/- mice, 4-week treatment and 4-week observation period. As for the experimental part: At the age of 6-8-weeks mice were randomly assigned into 4 treatment groups (3-4 animals/group) without blinding.
4-week treatment period was followed by 4-week observation period to monitor for drug toxicity-related symptoms. Afterwards the animals were sacrificed and organs (brain, liver, spleen and kidney) were extracted. Tissues were fixed for 48 hours in Roti®-Histofix 4 % (cat.no. P087.5, Roth) followed by dehydration in 50% Ethanol. […] For γH2AX (p-S139) staining 4 μm FFPE tissue sections were cut, deparaffinized and re-hydrated. […] Antibody- and H&E-stained specimens were evaluated by the pathologist (T.G.P.G.). Images were taken with the Leica DM3000 LED microscope (10-fold magnification) and analyzed using Fiji v.2.16.0 (Java 8) and R version 4.2.2 (packages ggplot2 and ggsignif).
At the stage of designing experiments, a power analysis was performed for BT084 and LFS_primary models using R version 4.1.0 (type I error: 5%, type II error: 20%). Survival, IVIS readout and weight was analyzed using R version 4.2.2 (packages stat, ggplot2, ggsignif, survival, survminer and stats). Images were analyzed using Fiji v.2.16.0 (Java 8) and R version 4.2.2 (packages ggplot2 and ggsignif).

For a further series, the system named is LFS fibroblasts. The series is described as follows: Genotoxicity screen, Micronucleus Test (MNT). Also noted: key: MNT score = number of micronuclei / number of nuclei. The class given is cell-based, human. The conditions noted are these: Cmax concentration (or concentration causing 20% decrease of viability), 120 h, median. As for the experimental part:
To evaluate genotoxicity of compounds, the Micronucleus Test (MNT)[96]^,[97] method was used. […] Next, the cells were visualized using ImageXpress Micro 4 High-Content Imaging System (Molecular Devices, LLC) and 4 images for each well were analyzed with CellProfiler version 4.1.3 (the pipeline described in the supplementary information).
The MNT score for a specific compound was calculated according to a following formula: MNTscore=(numberofmicronuclei/numberofnuclei)
Resulting MNT scores were compared to negative (DMSO) and positive (mitomycin C) control scores using Welch t-test (R version 4.2.2, packages stat, ggplot2). If scores were statistically different from positive control, then the compound was classified as non-genotoxic. If scores were statistically different from negative control, then the compound was classified as genotoxic.

The next series relates to SJGBM-2 and UW228-2. As to the kind of experiment: Validation in established cell lines, Emax criterion in both cancer cell lines. The class given is cell-based. The settings on record: Homo sapiens; SJGBM-2 and UW228-2, selection criterion; read-out: maximum effect (Emax) in cancer cell lines.
Source text: as §3

Series [14] relates to CDK1 phosphorylation (phospho Y15) in SJ-GBM2 and UW228-2. The series is described as follows: Adavosertib pharmacodynamic marker (Western blot) in cell lines. Type of series: cell-based, human. The settings on record: adavosertib 100 nM, 300 nM for 8 and 24 hours. An excerpt:
Protein concentration of cell lysates were estimated using the Pierce BCA Protein Assay Kit (cat. no. 23225, ThermoFisher Scientific). For detecting CDK1 phosphorylation the following antibodies were used: α-CDK1 (phospho Y15) [BLR101H] (cat.no. ab275958, Abcam), α-Cdk1/Cdk2 (AN21.2) (cat.no. sc-53219, Santa Cruz Biotechnology, Inc.), α-HSP90 (cat.no. 4877, Cell Signaling Technology). Western blot bands were visualized using Amersham ECL Prime Western Blotting Detection System (cat. no. RPN2232SK, GE Healthcare) and quantified using ImageJ (version 1.50b, Wayne Rasband and co., NIH). Post analysis brightness and contrast of presented images was increased by 50%.

Where [15] appears, read: mean over three PDOs, metabolic activity, read-out: mean IC50.
Setting [16] is: range over three PDOs, read-out: IC50 range.

The term IC50 denotes the midpoint of a concentration-inhibition curve. Take `Cc1cc(Nc2ncc3c(n2)N(C)CN(c2c(Cl)cccc2Cl)C3=O)ccc1C1CCN(C)CC1` [Debio 0123]: the “interaction in combination with vinca alkaloid (synergy score)” value in [1] was “additive interaction”. The BBB penetration entry with orthotopic GBM model was “ability to cross BBB”. Moreover, the IC50 in the series with SJ-GBM2 [2] was 147 nM; with UW228-2 [3] it was 270 nM.
A word on the viability: it is the share of living cells, or the viability signal relative to a control. The Cmax is the highest concentration seen after dosing. Broadly, the Emax is the maximal effect, on the per cent scale that the assay sets. Consider `CC[C@]1(O)C[C@H]2CN(CCc3c([nH]c4ccccc34)[C@@](C(=O)OC)(c3cc4c(cc3OC)N(C=O)[C@H]3[C@@](O)(C(=O)OC)[C@H](OC(C)=O)[C@]5(CC)C=CCN6CC[C@]43[C@@H]65)C2)C1` [Vincristine], for which the “Median lifespan since tumor detection” value in series [4] came out at 20.5 days. Also, the viability at 0.0005 µM came out at 62.9% in the series on SJ-GBM2 [5] and 80.2% with UW228-2 [6]. The IC50 in series [7] (setting [15]) was 6.8 nM; in [7] (setting [16]), 1.38 to 11.9 nM; in [8], 7.24 nM; in series [9], 1.38 nM; in series [10], 11.9 nM; with SJ-GBM2 [2] (Homo sapiens), 1.1 nM. This compound also showed a half-maximal inhibitory concentration (IC50) in the series with UW228-2 [3] (Homo sapiens) of 0.9 nM. Besides, the DSS in [8] is given as 22,69; in series [9], 54,34; in series [10], 16,96. Also, in [11], the caspase-3 activity entry was “did not influence caspase-3 activity”. For the same compound, in [12], the maximum concentration (Cmax) is 36 nM. The compound further gave a Survival in series [13] of 100%. Moreover, in series [13] (mouse, in vivo), the “genotoxicity or organ-specific toxicities” value is given as “low to no genotoxicity or organ-specific toxicities”. In the series with LFS fibroblasts, the “MNT_median (micronucleus test score)” value is listed as 2,59. The maximal effect (Emax) in the series with SJ-GBM2 [2] (Homo sapiens) was 92.5%; in the series with UW228-2 [3] (Homo sapiens), 52.2%; with SJGBM-2 and UW228-2 it was > 50%.
Take `C=CCn1c(=O)c2cnc(Nc3ccc(N4CCN(C)CC4)cc3)nc2n1-c1cccc(C(C)(C)O)n1` [Adavosertib]: the “levels of CDK1 phosphorylation” value in series [14] is reported as “reduced levels of CDK1 phosphorylation”. Besides, the “Median lifespan since tumor detection” value in series [4] is 9 days. The IC50 in series [7] (setting [15]) is 166 nM; in series [7] (setting [16]) it was 117 to 215 nM; in series [8] it was 215 nM; in series [9], 117 nM; in series [10], 167 nM; in the series with SJ-GBM2 [2] (Homo sapiens), 43.4 nM. In addition, the IC50 in the series with UW228-2 [3] (Homo sapiens) turned out to be 273 nM. Moreover, the DSS in series [8] is reported as 8,36; in series [9], 17,70; in series [10] it was 9,53. Further, the Survival in series [13] is 100%. Besides, the “MNT_median (micronucleus test score)” value in the series with LFS fibroblasts was 1,44. Further, the Emax is 98.1% in the series on SJ-GBM2 [2] (Homo sapiens); 89.1% in the series with UW228-2 [3] (Homo sapiens); > 50% in the series with SJGBM-2 and UW228-2.
